# From patent US20130236504A1, “Delivery System for Enhancing Drug Efficacy” (CLEMSON UNIVERSITY, priority 2012, published 2013)
# Tested on: U138 cells
# Experiment: MTT cell viability / cytotoxicity assay in U138 cells
# Protocol: Various drug combinations were incubated with U138 cells in cell culture media and the cells were then washed with PBS and added fresh media.
# [1] = therapeutic agent at 100 nM compared with non-toxic chemo-adjuvant O6-BG at 100 uM (FIG. 4)
SMILES,cytotoxicity (free O6-BG 100 μg/ml (FIG. 6)),cell viability (incubation with various concentrations of O6-BG (FIG. 3)),cell viability [1]
"Nc1nc(OCc2ccccc2)c2nc[nH]c2n1 [O6-BG, O6-Benzylguanine]",not cytotoxic,some effect on cell viability at very high concentrations,
C=CC(=O)Nc1cc2c(Nc3ccc(F)c(Cl)c3)ncnc2cc1OCCCN1CCOCC1 [canertinib],,,cell viability is lower
CC(=O)O[C@H]1C(=O)[C@@]2(C)[C@H]([C@H](OC(=O)c3ccccc3)[C@]3(O)C[C@H](OC(=O)[C@H](O)[C@@H](NC(=O)c4ccccc4)c4ccccc4)C(C)=C1C3(C)C)[C@]1(OC(C)=O)CO[C@@H]1C[C@@H]2O [paclitaxel],,,cell viability is lower
